Results as given in article PMC5218480 (PLoS ONE, 2017).

System: MV-4-11 cells
Test: Gene expression microarray analysis (Affymetrix PrimeView) and GSEA
Assay type: cell-based, human
Conditions: ProbeSet 11758779_at; LIST B

Nc1ccc(-c2cccs2)cc1NC(=O)c1ccc2c(c1)cc(C1CC1)n2CCN1CCOCC1 [ACY-1035]
RFU, TMEM50B: 85.32 RFU
